Consider 3 compounds from patent US20220401428A1, “Method for Treatment of Alzheimer's Disease” (University of Kentucky Research Foundation, priority 2019, published 2022).

The test system of one series is LRP1. Kind of series: LRP1 protein expression in rat brain microvascular ECs (Western blot, immunofluorescence). In kind it is cell-based. The text has this:
To study the role of miRNA signaling in amylin-induced suppression of endothelial LRP1 expression, transfection of rat brain microvascular ECs was used with miR-103-3p (MCR01039)[…](SEQ ID NO: 5), miR-107-3p (MCR01045)[…](SEQ ID NO: 6) and control (MCH00000) (https://www.abmgood.com/mirna-mimic-negative-control-mch00000.html). Antagomir miR-103-3p (IH-320345-05-0005)(SEQ ID NO: 5), miR-107-3p (IH-320348-05-0005)(SEQ ID NO: 6) and negative control (IN-001005-01-05) (https://www.biocompare.com/22445-RNA/4995709-miRIDIAN-microRNA-Hairpin-Inhibitor-Negative-Control-1-5-nmol/#productspecs) (Dharmacon Inc.) were used in an attempt to rescue LRP1 expression. All transfections were done using RNAiMAX (Invitrogen) as per manufacturer's recommended protocol. Briefly, ECs were plated at 50% confluency in 6-well plates followed by co-transfection with either 100 nM of 103-3p and 107-3p mimics or antagomirs along with their respective negative controls. After 12-hours, antagomir-treated cell groups were further treated with 10 uM human amylin for 24-hours. After 36-hours of transfection, cells were harvested for Western blot analysis.
In immunofluorescence experiments, formalin-fixed, paraffin-embedded human brain tissue was used and processed as previously described^16,18,39, brain capillaries from HIP and WT rats isolated as previously described^18. and cultured ECs. Anti-amylin (1:200; clone E5; SC-377530; Santa Cruz), anti-collagen IV (1:500; ab6586; abcam), anti-alpha smooth muscle actin-Alexa Fluor 405 (1:200; ab210128, abcam), anti-caveolin-1 (1:100; sc-894; Santa Cruz, Tex.), anti-LRP1 (1:500; sc-57351; Santa Cruz), anti-4HNE (1:200; ab46545; abcam) were the primary antibodies. Secondary antibodies were: Alexa Fluor 488 conjugated anti-mouse IgG (1:300; A11029; Invitrogen), Alexa Fluor 568 conjugated anti-rabbit IgG (1:200; A11036; Invitrogen), Alexa Fluor 568 conjugated anti-mouse IgG (1:300; A11004; Invitrogen). Nuclei were counterstained with DAPI mounting media. For triple staining of human brain tissues, smooth muscle actin-Alexa Fluor 405 antibody was added after staining with human amylin and collagen IV; DAPI free mounting media was used. For Thioflavin S staining, after secondary antibody incubation, brain slides were incubated in 0.5% Thioflavin S for 30 minutes at room temperature. Slides were then incubated for 3 minutes in 70% ethanol, 5 minutes in 0.2% Sudan black before washing and mounting. Immunocytochemistry was performed as described previously (39, 40).
Western blot analysis was performed on isolated brain capillaries, brain tissue homogenate and plasma from rats. Tissues were processed as described previously^16,18,28,39. RIPA buffer with 2% SDS was used to retrieve Aβ monomers from frozen brain samples^41. […]

For series [1], the system named is ADHIP rats. Kind of series: Behavior testing of sEHi-treated ADHIP rats (composite z-score). In kind it is in vivo, rat. The following applies: late stage (>16 months old) and early stage (12 months old) cohorts, treated vs untreated. Here is the method:
(§1) Pharmacological treatment on animals To increase plasma eicosanoids levels, the animals were treated with TPPU (1-Trifluoromethoxyphenyl-3-(1-propionylpiperidin-4-yl) urea, N-[1-(1-Oxopropyl)-4-piperidinyl]-N′-[4-(trifluoromethoxy)phenyl]-urea), a soluble epoxide hydrolase inhibitor (sEHi) (HY-101294, MedChem Express). […] 12 months old (n=5; early-stage) and 16 months old (n=6; late stage) animals were subjected to treatment with sEHi. For treatment at early-stage, the drug was administered through drinking water (3 mg/L, daily) and intravenous injection (20 μg/kg, once a week) to ensure equal intake for each animal. […] Amount of water intake was measured daily.
Behavior testing Forelimb use test/Cylinder test, inclined plane, hind limb clasping test. […] Animal forelimb deficit was evaluated by forelimb-to-wall contact time in cylinder test. […] Abnormalities in the animal hind limbs were assessed by scoring the severity of hind limb clasping.
Rotarod assessment Motor coordination and balance were tested by the rotarod (Rotamex 5, Columbus Instrument, OH) test^27. […] The remaining read-outs were averaged, and a group average was calculated for each genotype. […]
Morris Water Maze Spatial learning and long-term memory retention were tested in a 1.5 m diameter Morris Water Maze, as previously described^15. […] Trials were recorded by EthoVision XT software (Noldus, VA). […]

The subject of series [2] is ADHIP rats. Put plainly: Hypoxia markers in brain and brain capillary lysates of sEHi-treated ADHIP rats. It counts as in vivo, rat. The settings on record: treated vs untreated, HIF-1α, HIF-2α, Arg-1, Arg-2, arginase activity, mitochondrial DNA. On the procedure: as §1, with “daily. […]” for “daily.”
Enzyme-linked immune absorbance assay (ELISA) Levels of amylin in human brain samples were measured using sandwich amylin ELISA from Millipore (EZHA-52K). Levels of amylin in human CSF and animal samples were measured using amylin sandwich ELISA from R&D system (EIA-AMY). Aβ levels in animal CSF were measured using high sensitivity electrochemiluminescence ELISA (MSD 6E10, K15200G-2, Meso Scale Discovery). […]
Arginase activity Arginase activity in rat brain capillaries were measured using arginase activity kit (MAK112, Sigma). […]
Mitochondria DNA extraction and analysis Protocol for quantifying mitochondrial DNA content was described in Ref 32. […] DNA purity was assessed by ensuring the A260/A280 ratio was >1.8. […]

For series [3] the following is noted: reference 24; cited from earlier work.
Series [4] deals with ADHIP rats. Put plainly: Histology and immunohistochemistry of brains of sEHi-treated ADHIP rats. The following applies: treated vs untreated; for extent of axonal degeneration: MBP and LFB staining; for amylin deposition in brain capillaries: immunohistochemical analysis. In kind it is in vivo, rat. Here is the method:
Pharmacological treatment on animals To increase plasma eicosanoids levels, the animals were treated with TPPU (1-Trifluoromethoxyphenyl-3-(1-propionylpiperidin-4-yl) urea, N-[1-(1-Oxopropyl)-4-piperidinyl]-N′-[4-(trifluoromethoxy)phenyl]-urea), a soluble epoxide hydrolase inhibitor (sEHi) (HY-101294, MedChem Express). […] 12 months old (n=5; early-stage) and 16 months old (n=6; late stage) animals were subjected to treatment with sEHi. For treatment at early-stage, the drug was administered through drinking water (3 mg/L, daily) and intravenous injection (20 μg/kg, once a week) to ensure equal intake for each animal. For treatment at late-stage, the drug was administered through and intravenous injection (20 μg/kg, daily, 1 month) and then through drinking water (3 mg/L, daily, 1 month). Amount of water intake was measured daily.
Histology and demyelination scoring Myelination in rat brains was analyzed by staining with Luxol fast blue (LFB) dye. Scoring analysis method was performed as described previously^15. Microhemorrhages in rat brains were stained with Prussian blue dye and analyzed as described previously^15. Congo red staining was performed on the human brains as previously^11 described.
Immunohistochemistry. Formalin fixed, paraffin embedded brain and pancreas tissues from humans, ADHIP, AD, WT, and AD-AKO rats were used. Tissues were processed as previously described^11,14,15,27. After tissue rehydration, the endogenous peroxidase was quenched in 3% H2O2 in methanol for 30 minutes. For amylin and Aβ antigen retrieval, sections were treated with 100% formic acid for 5 minutes, followed by 0.5% pepsin digestion in 5 mM HCl for 20 minutes at 37° C. To retrieve intra-neuronal amylin antigen (rat brains) as well as other antigens, tissue sections were heated in citrate buffer for 30 minutes. Non-specific antibody binding was blocked by 15% horse serum for 1 hour at room temperature (RT). Primary antibodies against amylin, human Aβ, Iba1, CD68 or myelin basic protein (MBP) was incubated on slides overnight at 4° C. Sections were then washed and incubated with secondary antibodies. Signal was developed with DAB or AEC peroxidase substrate. For co-staining with two antibodies, after the signal was developed for the first antibody, sections were then rinsed in water. Non-specific antibody binding was blocked with 10% normal goat serum, and the sections were incubated with the second primary antibody overnight at 4° C. Sections were then washed and incubated with AP-conjugated secondary antibody, and developed with StayGreen/AP chromogen substrate. Sections were mounted with aqueous mounting medium. The specificity of the amylin antibody in both human and rat brain tissues was established in previous studies^11,14,15,27.
Imaging analysis Wide-field images of stained tissue sections were generated by stitching images obtained from the 10× objective lens (Nikon NIS-Element Software). Higher magnification images for specific tissue area were obtained using the 40× objective lens. The immunoreactivity signal for each antibody was analyzed by ImageJ. Clearly defined-signal pixels were selected to establish the RGB profile of the color of interest. The threshold for each color signal was adjusted to reduce background noise. The established RGB profile and threshold were applied to a Macro script command, using Color Deconvolution plugin in ImageJ. The staining area was calculated using the following equation: […]

Setting [5] is: listed as inhibitor of soluble epoxide hydrolase (sEH).

For the compound “miR-103 and miR-107 mimics: co-transfected miRNA mimics miR-103-3p (SEQ ID NO: 5) and miR-107-3p (SEQ ID NO: 6) (chain 1 AGCAGCAUUGUACAGGGCUAUGA; chain 2 AGCUUCUUUACAGUGUUGCCUUGU; listed as RNA, chemistry not given here)”, in the series on LRP1 (ECs co-transfected with 100 nM mimics, 24 hours, vs miR-control, Western blot), the “average LRP1 expression level” value is “lower”.

On to rat amylin, for which the LRP1 protein levels result with LRP1 (ECs, 10 μM, 24-hour incubation, confocal microscopy and Western blot) was “no effect”.

For the compound `CCC(=O)N1CCC(NC(=O)Nc2ccc(OC(F)(F)F)cc2)CC1` [sEHi, 1-(1-propanoylpiperidin-4-yl)-3-[4-(trifluoromethoxy)phenyl]urea], the behavior deficits entry in the series on ADHIP rats [1] is “attenuation of functional decline”; in the series with ADHIP rats [1] (setting [5]), “reduced behavior deficits”. Besides, in the series on ADHIP rats [2], the “brain accumulation of hypoxia markers” value is given as “lowered brain accumulation of hypoxia markers”. Besides, the “level of circulating amylin” value in series [3] was “lower the level of circulating amylin”. Further, the “extent of axonal degeneration” value in the series with ADHIP rats [4] is “ameliorated”; with ADHIP rats [4] (setting [5]) it was “reduced”. Further, in the series on ADHIP rats [4] (Prussian blue), the “number of brain microhemorrhages” value is listed as “reduced”. Further, the “amylin deposition in brain capillaries” value in the series on ADHIP rats [4] was “reduced capillary amylin deposition”; in the series with ADHIP rats [4] (setting [5]), “reduced amylin deposition in brain capillaries”.
